Test results published in patent US12091684B2, “Platelet-derived mitochondria treatment and method of generating multipotent cells” (Hackensack Meridian Health, Inc., priority 2020, dated 2024).

Columns and labels:
CXCR4 = CXCR4 (Homo sapiens, UniProt P61073); settings: 30 μM, 4 hours, purified PB-IPC nuclei with labeled mitochondria
Description: To determine whether the action of SDF-1/CXCR4 contributed to the penetration of mitochondria into nuclei, a blocking experiment with CXCR4 receptor antagonist AMD3100 was performed. The purified PB-IPC's nuclei were treated with MitoTracker Deep Red-labeled purified mitochondria in the presence or absence of AMD 3100 (30 μM). The equal concentration of solvent DMSO served as a control. After 4 hours of the treatment, nuclei were washed twice with PBS and prepared for flow cytometry.

γ-secretase = test: DAPT-blocking experiment (CD34 expression by flow cytometry); format: cell-based, human; settings: PB-IPCs, 10 μM DAPT, 100 μg/mL mitochondria where present, 7-14 days, n=4
Description: For a DAPT-blocking experiment, PB-IPCs were treated with 100 μg/mL mitochondria plus 10 μM DAPT (Sigma, Saint Louis, MO, USA, Catalog #D5942) for 7-14 days in non-tissue, culture-treated 24-well plates or Petri dishes with serum-free NutriStem® hPSC XF culture medium (Corning, New York, NY, USA), at 37° C. and 8% CO2. Subsequently, both treated and untreated PB-IPC were collected to examine the expression of CD34 by flow cytometry.

Sequence of CXCR4 (P61073 whole entry): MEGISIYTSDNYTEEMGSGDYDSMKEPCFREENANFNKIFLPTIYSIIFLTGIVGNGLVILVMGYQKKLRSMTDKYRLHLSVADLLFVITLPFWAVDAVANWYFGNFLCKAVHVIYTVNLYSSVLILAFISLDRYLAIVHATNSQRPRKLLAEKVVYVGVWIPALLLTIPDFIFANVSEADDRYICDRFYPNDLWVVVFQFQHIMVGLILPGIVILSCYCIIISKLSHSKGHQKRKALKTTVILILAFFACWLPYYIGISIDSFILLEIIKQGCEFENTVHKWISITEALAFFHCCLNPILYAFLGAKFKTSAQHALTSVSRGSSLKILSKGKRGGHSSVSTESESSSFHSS

Row | SMILES | percentage of MitoTracker Deep Red-positive nuclei (CXCR4) | percentage of CD34+ cells (γ-secretase)
1 | c1cc(CN2CCCNCCNCCCNCC2)ccc1CN1CCCNCCNCCCNCC1 [AMD 3100] | markedly reduced | 
2 | C[C@H](NC(=O)Cc1cc(F)cc(F)c1)C(=O)N[C@H](C(=O)OC(C)(C)C)c1ccccc1 [DAPT, N—[N-(3,5-difluorophenacetyl)-L-alanyl]-S-phenylglycine t-butyl ester] |  | 2.59%±0.13%
